pIC50: −log10 of the molar value.
Target: T1, chimeric human RORγ-Gal4 receptor (Homo sapiens, UniProt P51449)
T1 sequence (P51449 269-508 limits assumed): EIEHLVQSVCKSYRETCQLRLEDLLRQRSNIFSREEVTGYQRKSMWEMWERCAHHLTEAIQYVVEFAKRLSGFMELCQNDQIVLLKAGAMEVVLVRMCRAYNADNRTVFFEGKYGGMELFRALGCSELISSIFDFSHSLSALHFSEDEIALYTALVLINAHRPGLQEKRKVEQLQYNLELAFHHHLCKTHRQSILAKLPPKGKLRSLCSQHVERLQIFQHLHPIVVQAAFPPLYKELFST
Experiment: transient transactivation assay (RORγ-Gal4 luciferase reporter)
Type: cell-based
Details: Cos-7 cells transfected with RORγ-Gal4 and 5Gal4 pGL3 TK Luc reporter; overnight incubation; T0901317 at 10^-5 M as reference; read-out: IC50

Row | Compound | pIC50
1 | COCCC1CCN(Cc2ccc(Cl)c(Cc3nc4c(C)cc(C(F)(F)F)cc4n3C)c2Cl)CC1 [Example BW, 2-[[2,6-dichloro-3-[[4-(2-methoxyethyl)-1-piperidyl]methyl]phenyl]methyl]-1,4-dimethyl-6-(trifluoromethyl)benzimidazole] | 6.30 to 7.00
2 | Cc1c(Br)ccc2c1nc(Cc1c(Cl)ccc(C(=O)N3CCOCC3)c1Cl)n2C [Example CB, (3-((5-bromo-1,4-dimethyl-1H-benzo[d]imidazol-2-yl)methyl)-2,4-dichlorophenyl)(morpholino)methanone] | 6.30 to 7.00
3 | CCn1c(Cc2c(Cl)ccc(C(=O)N3CCOCC3)c2Cl)cc2c(C)cc(C(F)(F)F)cc21 [Example D-1] | > 7.00
4 | CC(=O)n1c(Cc2c(Cl)ccc(C(=O)N3CCOCC3)c2Cl)cc2c(C)cc(C(F)(F)F)cc21 [Example D-2] | > 7.00
5 | Cc1cc(C(F)(F)F)cc2c1c(Cc1c(Cl)ccc(C(=O)N3C[C@@H]4[C@H](C3)[C@H]4C(=O)O)c1Cl)cn2C [Example F1-1] | > 7.00
6 | Cc1cc(C(F)(F)F)cc2c1c(Cc1c(Cl)ccc(C(=O)N3CC[C@H](C(=O)O)[C@H](C)C3)c1Cl)cn2C [Example F1-2] | > 7.00
7 | Cc1cc(C(F)(F)F)cc2c1c(Cc1c(Cl)ccc(C(=O)N3CC[C@@H](C(=O)O)[C@@H](C)C3)c1Cl)cn2C [Example F1-3] | > 7.00
8 | Cc1cc(C#N)cc2c1cc(Cc1c(Cl)ncc(C(=O)N3CCC4(CCOC4)CC3)c1Cl)n2C [Example FB, 2-((2,4-dichloro-5-(2-oxa-8-azaspiro[4.5]decane-8-carbonyl)pyridin-3-yl)methyl)-1,4-dimethyl-1H-indole-6-carbonitrile] | > 7.00
9 | Cc1cc(C#N)cc2c1cc(Cc1c(Cl)ncc(C(=O)N3CCC(C4COC4)CC3)c1Cl)n2C [Example FC, 2-((2,4-dichloro-5-(4-(oxetan-3-yl)piperidine-1-carbonyl)pyridin-3-yl)methyl)-1,4-dimethyl-1H-indole-6-carbonitrile] | > 7.00
10 | COc1cc(C)c2cc(Cc3c(Cl)ccc(C(=O)N4CCC(CC(=O)O)CC4)c3Cl)n(C)c2c1 [Example FD, 2-(1-(2,4-dichloro-3-((6-methoxy-1,4-dimethyl-1H-indol-2-yl)methyl)benzoyl)piperidin-4-yl)acetic acid] | > 7.00
11 | Cn1c(Cc2c(Cl)ccc(C(=O)N3CCC(CC(=O)O)CC3)c2Cl)cc2c(F)cc(C(F)(F)F)cc21 [Example FE, 2-(1-(2,4-dichloro-3-((4-fluoro-1-methyl-6-(trifluoromethyl)-1H-indol-2-yl)methyl)benzoyl)piperidin-4-yl)acetic acid] | > 7.00
12 | Cc1cc(OC(F)F)cc2c1cc(Cc1c(Cl)ccc(C(=O)N3CCC(CC(=O)O)CC3)c1Cl)n2C [Example FF, 2-(1-(2,4-dichloro-3-((6-(difluoromethoxy)-1,4-dimethyl-1H-indol-2-yl)methyl)benzoyl)piperidin-4-yl)acetic acid] | > 7.00
13 | Cc1cc(C(F)(F)F)cc2c1cc(C(=O)c1c(Cl)ncc(C(=O)N3CCC(CC(=O)O)CC3)c1Cl)n2C [Example FG, 2-(1-(4,6-dichloro-5-(1,4-dimethyl-6-(trifluoromethyl)-1H-indole-2-carbonyl)nicotinoyl)piperidin-4-yl)acetic acid] | > 7.00
14 | Cc1cc(C(F)(F)F)cc2c1cc(Cc1c(Cl)cnc(C(=O)N3CCC(CC(=O)O)CC3)c1Cl)n2C [Example FH, 2-(1-(3,5-dichloro-4-((1,4-dimethyl-6-(trifluoromethyl)-1H-indol-2-yl)methyl)picolinoyl)piperidin-4-yl)acetic acid] | > 7.00
15 | Cn1c(Cc2c(Cl)ccc(C(=O)N3CCC(CC(=O)O)CC3)c2Cl)cc2ccc(OC(F)(F)F)cc21 [Example FI, 2-(1-(2,4-dichloro-3-((1-methyl-6-(trifluoromethoxy)-1H-indol-2-yl)methyl)benzoyl)piperidin-4-yl)acetic acid] | > 7.00
16 | Cc1nc(C(F)(F)F)cc2c1cc(Cc1c(Cl)ccc(C(=O)N3CCN(C4COC4)CC3)c1Cl)n2C [Example FJ, (2,4-dichloro-3-((1,4-dimethyl-6-(trifluoromethyl)-1H-pyrrolo[3,2-c]pyridin-2-yl)methyl)phenyl)(4-(oxetan-3-yl)piperazin-1-yl)methanone] | > 7.00
17 | CC(=O)Nc1cc(C)c2cc(Cc3c(Cl)ccc(C(=O)N4CCOCC4)c3Cl)n(C)c2c1 [Example FK, N-(2-(2,6-dichloro-3-(morpholine-4-carbonyl)benzyl)-1,4-dimethyl-1H-indol-6-yl)acetamide] | > 7.00
18 | Cn1c(Cc2c(C3CC3)ccc(C(=O)N3CCC(CC(=O)O)CC3)c2Cl)cc2ccc(OC(F)(F)F)cc21 [Example FL, 2-(1-(2-chloro-4-cyclopropyl-3-((1-methyl-6-(trifluoromethoxy)-1H-indol-2-yl)methyl)benzoyl)piperidin-4-yl)acetic acid] | > 7.00
19 | Cn1c(Cc2c(Cl)ccc(C(=O)N3CCC(CC(=O)O)CC3)c2Cl)cc2c(F)cc(C3CC3)cc21 [Example FM, 2-(1-(2,4-dichloro-3-((6-cyclopropyl-4-fluoro-1-methyl-1H-indol-2-yl)methyl)benzoyl)piperidin-4-yl)acetic acid] | > 7.00
20 | Cn1c(Cc2c(Cl)ccc(C(=O)N3CCC(C(=O)O)CC3)c2Cl)cc2c(F)cc(C3CC3)cc21 [Example FN, 1-(2,4-dichloro-3-((6-cyclopropyl-4-fluoro-1-methyl-1H-indol-2-yl)methyl)benzoyl)piperidine-4-carboxylic acid] | > 7.00
21 | Cc1cc(C(=O)N(C)C)cc2c1cc(Cc1c(Cl)ccc(C(=O)N3CCOCC3)c1Cl)n2C [Example FO, 2-[[2,6-dichloro-3-(morpholine-4-carbonyl)phenyl]methyl]-N,N,1,4-tetramethyl-indole-6-carboxamide] | > 7.00
22 | CNC(=O)c1cc(C)c2cc(Cc3c(Cl)ccc(C(=O)N4CCOCC4)c3Cl)n(C)c2c1 [Example FP, 2-[[2,6-dichloro-3-(morpholine-4-carbonyl)phenyl]methyl]-N,1,4-trimethyl-indole-6-carboxamide] | > 7.00
23 | Cc1cc(C(F)(F)F)cc2c1c(Cc1c(Cl)ccc(C(=O)N3CCC(C(=O)O)CC3)c1Cl)cn2C [Example FQ, 1-(2,4-dichloro-3-((1,4-dimethyl-6-(trifluoromethyl)-1H-indol-3-yl)methyl)benzoyl)piperidine-4-carboxylic acid] | > 7.00
24 | Cc1cn(Cc2c(Cl)cnc(C(=O)N3CCC(CC(=O)O)CC3)c2Cl)c2c(C)cc(C(F)(F)F)cc12 [Example FR, 2-(1-(3,5-dichloro-4-((3,7-dimethyl-5-(trifluoromethyl)-1H-indol-1-yl)methyl)picolinoyl)piperidin-4-yl)acetic acid] | > 7.00
25 | COCCC1CCN(C(=O)c2ccc(Cl)c(Cc3cc4c(C)cc(C(F)(F)F)nc4n3C)c2Cl)CC1 [Example FT, (2,4-dichloro-3-((1,4-dimethyl-6-(trifluoromethyl)-1H-pyrrolo[2,3-b]pyridin-2-yl)methyl)phenyl)(4-(2-methoxyethyl)piperidin-1-yl)methanone] | > 7.00
26 | Cc1cc(C(F)(F)F)nc2c1cc(C(=O)c1c(Cl)ccc(C(=O)N3CCC(C#N)CC3)c1Cl)n2C [Example FV, 1-(2,4-dichloro-3-(1,4-dimethyl-6-(trifluoromethyl)-1H-pyrrolo[2,3-b]pyridine-2-carbonyl)benzoyl)piperidine-4-carbonitrile] | > 7.00
